Assay results reported in patent US20070010489A1 (priority 2002, published 2007).

system: wild-type HIV-1 strain IIIB; assay: microbe, parasite or virus in culture; type: cell-based; conditions: Human immunodeficiency virus 1, IIIB

Compound	EC50 [µM]
Cc1ccc(C(=O)NC(Cc2ccc(OCP(=O)(OCc3ccccc3)OCc3ccccc3)cc2)C(O)CN(CC(C)C)S(=O)(=O)c2ccc(N)cc2)cc1O (centres unmarked)	0.05 to 0.5
CC(C)CN(CC(O)C(Cc1ccc(OCP(=O)(OCc2ccccc2)OCc2ccccc2)cc1)NC(=O)OC1COC2OCCC12)S(=O)(=O)c1cccc(N)c1 (centres unmarked)	< 0.05
CCOP(=O)(COc1ccc(CC(NC(=O)OC2COC3OCCC23)C(O)CN(CC(C)C)S(=O)(=O)c2ccc(N)cc2)cc1)OCC (centres unmarked)	< 0.05
COc1ccc(S(=O)(=O)N(CCN2CCOCC2)CC(O)C(Cc2ccc(OCP(=O)(OCc3ccccc3)OCc3ccccc3)cc2)NC(=O)OC2COC3OCCC23)cc1 (centres unmarked)	0.05 to 0.5
CC(C)CN(CC(O)C(Cc1ccc(OCP(=O)(OCc2ccccc2)OCc2ccccc2)cc1)NC(=O)OC1COC2OCCC12)S(=O)(=O)c1ccc(N)cc1 (centres unmarked)	< 0.05
CCOP(=O)(COc1ccc(CC(NC(=O)OC2COC3OCCC23)C(O)CN(CC(C)C)S(=O)(=O)c2cccc(N)c2)cc1)OCC (centres unmarked)	0.05 to 0.5
COc1ccc(S(=O)(=O)N(CC(C)C)CC(O)C(Cc2ccccc2)NC(=O)OC2COC3OCCC23)cc1O (centres unmarked)	< 0.05
COc1ccc(S(=O)(=O)N(CC(C)C)CC(O)C(Cc2ccc(OCc3ccccc3)cc2)NC(=O)OC2COC3OCCC23)cc1 (centres unmarked)	< 0.05
COc1ccc(S(=O)(=O)N(CC(C)C)CC(O)C(CC2=CCN(CCP(=O)(OCc3ccccc3)OCc3ccccc3)CC2)NC(=O)OC2COC3OCCC23)cc1 (centres unmarked)	< 0.05
CC(C)CN(CC(O)C(Cc1ccc(O)cc1)NC(=O)OC1COC2OCCC12)S(=O)(=O)c1cccc(N)c1 (centres unmarked) [OH, m-NH2]	0.05 to 0.5
CC(C)CN(C[C@@H](O)[C@H](Cc1ccccc1)NC(=O)O[C@H]1CO[C@H]2OCC[C@H]21)S(=O)(=O)c1ccc(OCP(=O)(Oc2ccccc2)O[C@@H](C)C(=O)OC(C)C)cc1 (some centres unmarked) [OPh, Lac-iPr]	0.5 to 5
CC(C)CN(CC(O)C(Cc1ccc(OCP(=O)(OCc2ccccc2)OCc2ccccc2)cc1)NC(=O)OC1COC2OCCC12)S(=O)(=O)c1ccc(C(F)(F)F)cc1 (centres unmarked)	< 0.05
CC(C)CN(CC(O)C(Cc1ccccc1)NC(=O)OC1COC2OCCC12)S(=O)(=O)c1cccc(OCP(=O)(O)O)c1 (centres unmarked)	0.05 to 0.5
CCOP(=O)(CCN1CCN(CC(NC(=O)OC2COC3OCCC23)C(O)CN(CC(C)C)S(=O)(=O)c2ccc(OC)cc2)CC1)OCC (centres unmarked)	0.05 to 0.5
CC(C)CN(C[C@@H](OP(=O)(O)O)[C@H](Cc1ccccc1)NC(=O)O[C@H]1CCOC1)S(=O)(=O)c1ccc(N)cc1 [Phosphate Prodrug of Ampenavir]	0.05 to 0.5
COc1ccc(S(=O)(=O)N(CC(C)C)CC(O)C(CNc2ccc(CP(=O)(OCc3ccccc3)OCc3ccccc3)cc2)NC(=O)OC2COC3OCCC23)cc1 (centres unmarked)	< 0.05
CCOP(=O)(COc1ccc(CC(NC(=O)OC2COC3OCCC23)C(O)CN(CC(C)C)S(=O)(=O)c2ccc([N+](=O)[O-])cc2)cc1)OCC (centres unmarked)	< 0.05
COc1ccc(S(=O)(=O)N(CC(C)C)CC(O)C(Cc2ccccc2)NC(=O)OC2COC3OCCC23)cc1OCP(=O)(O)O (centres unmarked)	0.05 to 0.5
COc1ccc(S(=O)(=O)N(CC(C)C)CC(O)C(CC2=CCN(CCP(=O)(OC)OC)CC2)NC(=O)OC2COC3OCCC23)cc1 (centres unmarked)	0.05 to 0.5
CC(C)CN(CC(O)C(Cc1ccc(O)cc1)NC(=O)OC1COC2OCCC12)S(=O)(=O)c1ccc(OCP(=O)(OCc2ccccc2)OCc2ccccc2)cc1 (centres unmarked) [OH, OBn]	0.05 to 0.5
CC(C)CN(CC(O)C(Cc1ccc(O)cc1)NC(=O)OC1COC2OCCC12)S(=O)(=O)c1ccc(N)cc1 (centres unmarked) [OH, p-NH2]	0.05 to 0.5
COc1ccc(S(=O)(=O)N(CC(C)C)C[C@@H](OP(=O)(O)O)[C@H](Cc2ccccc2)NC(=O)O[C@H]2CO[C@H]3OCC[C@H]32)cc1 [Phosphate Prodrug of 94-003]	< 0.05
CC(C)CN(CC(O)C(Cc1ccccc1)NC(=O)OC1COC2OCCC12)S(=O)(=O)c1cccc(O)c1 (centres unmarked)	< 0.05
CCOP(=O)(Cc1ccc(N(C)CC(NC(=O)OC2COC3OCCC23)C(O)CN(CC(C)C)S(=O)(=O)c2ccc(OC)cc2)cc1)OCC (centres unmarked)	< 0.05
COc1ccc(S(=O)(=O)N(CC(C)C)CC(O)C(Cc2ccc(P(=O)(O)O)cc2)NC(=O)OC2COC3OCCC23)cc1 (centres unmarked) [drawing 1770 R1=OH R2=OH]	> 5

Compound	EC50 [µM]
CC(C)CN(CC(O)C(Cc1ccc(OCP(=O)(OCc2ccccc2)OCc2ccccc2)cc1)NC(=O)OC1COC2OCCC12)S(=O)(=O)N1CCN(C)CC1 (centres unmarked)	0.05 to 0.5
CC(C)CN(CC(O)C(Cc1ccccc1)NC(=O)OC1COC2OCCC12)S(=O)(=O)c1ccc(O)cc1 (centres unmarked)	< 0.05
CC(C)CN(CC(O)C(Cc1ccc(OCP(=O)(OCc2ccccc2)OCc2ccccc2)cc1)NC(=O)OC1COC2OCCC12)C(=O)OC(C)(C)C (centres unmarked)	0.05 to 0.5
COc1ccc(S(=O)(=O)N(CC(C)C)CC(O)C(Cc2ccc(OCP(=O)(OCc3ccccc3)OC(C)C(=O)OCc3ccccc3)cc2)NC(=O)OC2COC3OCCC23)cc1 (centres unmarked) [drawing 1775 R1=OBn R2=Lac-Bn]	0.05 to 0.5
CCOP(=O)(CON=Cc1ccc(CC(NC(=O)OC2COC3OCCC23)C(O)CN(CC(C)C)S(=O)(=O)c2ccc(OC)cc2)cc1)OCC (centres unmarked) [drawing 1781 R1=Et R2=Et]	< 0.05
CCNc1ccc(S(=O)(=O)N(CC(C)C)CC(O)C(Cc2ccc(OCP(=O)(OCC)OCC)cc2)NC(=O)OC2COC3OCCC23)cc1 (centres unmarked)	< 0.05
CC(C)CN(CC(O)C(Cc1ccc(OCCN(C)C)cc1)NC(=O)OC1COC2OCCC12)S(=O)(=O)c1ccc(OCP(=O)(O)O)cc1 (centres unmarked) [OC2H4NMe2, OH]	0.5 to 5
CC(C)CN(CC(O)C(Cc1ccc(OCP(=O)(OCc2ccccc2)OCc2ccccc2)cc1)NC(=O)OC1COC2OCCC12)S(=O)(=O)c1ccc(C#N)cc1 (centres unmarked)	< 0.05
CCOP(=O)(COc1cc(S(=O)(=O)N(CC(C)C)CC(O)C(Cc2ccccc2)NC(=O)OC2COC3OCCC23)ccc1OC)OCC (centres unmarked)	0.05 to 0.5
CCCCOC(=O)C(C)OP(=O)(COc1ccc(CC(NC(=O)OC2COC3OCCC23)C(O)CN(CC(C)C)S(=O)(=O)c2cccc(N)c2)cc1)Oc1ccccc1 (centres unmarked)	0.05 to 0.5
CC(C)CN(CC(O)C(Cc1ccc(OCCN(C)C)cc1)NC(=O)OC1COC2OCCC12)S(=O)(=O)c1ccc(OCP(=O)(OCc2ccccc2)OCc2ccccc2)cc1 (centres unmarked) [OC2H4—NMe2, OBn]	0.05 to 0.5
CCOP(=O)(COc1ccc(S(=O)(=O)N(CC(C)C)CC(O)C(Cc2ccc(N(C)C)cc2)NC(=O)OC2COC3OCCC23)cc1)OCC (centres unmarked) [NMe2, OEt]	< 0.05
CCOP(=O)(CN1CC=C(CC(NC(=O)OC2COC3OCCC23)C(O)CN(CC(C)C)S(=O)(=O)c2ccc(OC)cc2)CC1)OCC (centres unmarked)	< 0.05
CCOP(=O)(Cc1ccc2c(c1)CCN(CC(NC(=O)OC1COC3OCCC13)C(O)CN(CC(C)C)S(=O)(=O)c1ccc(OC)cc1)C2)OCC (centres unmarked)	< 0.05
CC(C)CN(CC(O)C(Cc1ccc(OCP(=O)(OCc2ccccc2)OCc2ccccc2)cc1)NC(=O)OC1COC2OCCC12)S(=O)(=O)c1ccc(F)cc1 (centres unmarked)	< 0.05
CCOP(=O)(CCC1=CCN(CC(NC(=O)OC2COC3OCCC23)C(O)CN(CC(C)C)S(=O)(=O)c2ccc(OC)cc2)CC1)OCC (centres unmarked)	< 0.05
CCOP(=O)(CNc1ccc(CC(NC(=O)OC2COC3OCCC23)C(O)CN(CC(C)C)S(=O)(=O)c2ccc(OC)cc2)cc1)OCC (centres unmarked)	< 0.05
CCOP(=O)(COc1cc(S(=O)(=O)N(CC(C)C)CC(O)C(Cc2ccccc2)NC(=O)OC2COC3OCCC23)ccc1O)OCC (centres unmarked)	0.05 to 0.5
CCOP(=O)(CCNCc1ccc(CC(NC(=O)OC2COC3OCCC23)C(O)CN(CC(C)C)S(=O)(=O)c2ccc(OC)cc2)cc1)OCC (centres unmarked) [drawing 1779 R1=Et R2=Et]	< 0.05
COc1ccc(S(=O)(=O)N(CC2CCN(C=O)CC2)CC(O)C(Cc2ccc(OCP(=O)(OCc3ccccc3)OCc3ccccc3)cc2)NC(=O)OC2COC3OCCC23)cc1 (centres unmarked)	0.05 to 0.5
COc1ccc(S(=O)(=O)N(CC(C)C)CC(O)C(Cc2ccc(NCP(=O)(OCc3ccccc3)OCc3ccccc3)cc2)NC(=O)OC2COC3OCCC23)cc1 (centres unmarked)	< 0.05
CCOP(=O)(COC1CCN(CC(NC(=O)OC2COC3OCCC23)C(O)CN(CC(C)C)S(=O)(=O)c2ccc(OC)cc2)CC1)OCC (centres unmarked)	0.05 to 0.5
CCOP(=O)(Cc1ccc(NCC(NC(=O)OC2COC3OCCC23)C(O)CN(CC(C)C)S(=O)(=O)c2ccc(OC)cc2)cc1)OCC (centres unmarked)	< 0.05
CC(C)CN(CC(O)C(Cc1ccc(OCP(=O)(OCc2ccccc2)OCc2ccccc2)cc1)NC(=O)OC1COC2OCCC12)S(=O)(=O)c1ccccc1 (centres unmarked)	< 0.05
CC(C)CN(CC(O)C(Cc1ccc(OCP(=O)(OCc2ccccc2)OCc2ccccc2)cc1)NC(=O)OC1COC2OCCC12)S(=O)(=O)c1ccc(OC(F)(F)F)cc1 (centres unmarked)	< 0.05

same assay, conditions: Human immunodeficiency virus 1, IIIB, MT2, 120 h, read-out: Anti-HIV-1 Cell Culture Activity EC50

Compound	EC50 [µM]
CCCCOC(=O)CNP(=O)(COc1ccc(CC(NC(=O)OC2COC3OCCC23)C(O)CN(CC(C)C)S(=O)(=O)c2ccc(OC)cc2)cc1)NCC(=O)OCCCC (centres unmarked) [Compound 16b]	0.0175 ± 0.0105

same assay, conditions: Human immunodeficiency virus 1, IIIB, class symbols

Compound	EC50 [µM]
CCOC(=O)C(C)OP(=O)(COc1ccc2c(c1)CCN(CC(NC(=O)OC1COC3OCCC13)C(O)CN(CC(C)C)S(=O)(=O)c1ccc(OC)cc1)C2)Oc1ccccc1 (centres unmarked)	0.05 to 0.5
COC(=O)C(C)OP(=O)(COc1ccc(CC(NC(=O)OC2COC3OCCC23)C(O)CN(CC(C)C)S(=O)(=O)c2ccc(OC)cc2)cc1)Oc1ccccc1 [drawing 1775 R1=OPh R2=(R)Lac-Me]	< 0.05

same assay, conditions: class symbols

Compound	EC50 [µM]
COc1ccc(S(=O)(=O)N(CC(C)C)CC(O)C(Cc2ccc(NCP(=O)(NC(C)C(=O)OC(C)C)Oc3ccccc3)cc2)NC(=O)OC2COC3OCCC23)cc1 (centres unmarked) [drawing 1822]	< 0.05
COc1ccc(S(=O)(=O)N(CC(C)C)CC(O)C(Cc2ccc(NCP(=O)(NC(C)C(=O)OC(C)C)Oc3ccccc3)cc2)NC(=O)OC2COC3OCCC23)cc1 (centres unmarked) [drawing 1821]	0.05 to 0.5

same assay, conditions: read-out: Anti-HIV-1 Cell Culture Activity EC50

Compound	EC50 [µM]
CCOC(=O)C(Cc1ccccc1)NP(=O)(COc1ccc(CC(NC(=O)OC2COC3OCCC23)C(O)CN(CC(C)C)S(=O)(=O)c2ccc(OC)cc2)cc1)NC(Cc1ccccc1)C(=O)OCC (centres unmarked) [Example 16i]	0.017 ± 0.012
COc1ccc(S(=O)(=O)N(CC(C)C)CC(O)C(Cc2ccc(OCP(=O)(O)NC(C)C(=O)O)cc2)NC(=O)OC2COC3OCCC23)cc1 (centres unmarked) [Met X]	> 10
CCCCOC(=O)C(CC(C)C)NP(=O)(COc1ccc(CC(NC(=O)OC2COC3OCCC23)C(O)CN(CC(C)C)S(=O)(=O)c2ccc(OC)cc2)cc1)NC(CC(C)C)C(=O)OCCCC (centres unmarked) [Example 16h]	0.12 ± 0.042
CCOC(=O)C(C)OP(=O)(O)COc1ccc(CC(NC(=O)OC2COC3OCCC23)C(O)CN(CC(C)C)S(=O)(=O)c2ccc(OC)cc2)cc1 (centres unmarked) [Met LX]	1.75 ± 0.354
